Reference: patent publication US10875867B2, “Cyclic ether derivatives of pyrazolo[1,5-a]pyrimidine-3-carboxyamide” (Boehringer Ingelheim International GmbH, priority 2015, dated 2020)

Legend:
PDE 2A = PDE 2A (Homo sapiens (Human), UniProt O00408); assay: Phosphodiesterase (PDE) 2A assay with fluorescent substrate (IMAP, fluorescence polarization); format: biochemical; settings: labeled cAMP 30 nM, read-out: PDE2 IC50
Description: (§1) The IMAP system (Molecular Device) using fluorescence polarization (FP) as detection principle was used to measure enzyme activity. A fluorescent labeled cAMP was used as substrate for the reaction, generating a labeled AMP. The fluorescent AMP binds specifically to the large M(III)-based nano-particles which reduces the rotational speed of the substrate and thus increases its polarization. Detailed Method: The inhibition of PDE 2A or 10 enzyme activity was assessed using IMAP-Phosphodiesterase-cAMP fluorescence labeled substrate (Molecular Devices, Order No. R7506), IMAP TR-FRET screening express (Molecular Devices, Order No. R8160, the TR-FRET component will not be used) and PDE 2A or PDE10 protein expressed upon baculovirus infection in SF9 cells. […] The cells were collected by centrifugation and the pellet frozen in liquid nitrogen before it was resuspended in PBS containing 1% Triton X-100 and protease inhibitors. After 45 min incubation on ice, the cell debris was removed by centrifugation (13.000 rpm, 30 min). […] All reactions were performed in 384 well plates, Perkin Elmer black optiplates and IMAP reaction buffer with 0.1% Tween20 (kit component) Compounds were serial diluted in DMSO. […] Reaction is stopped by adding of 60 μl binding buffer for FP/cAMP (kit component).

PDE10 = PDE10 (Homo sapiens (Human), UniProt Q9Y233); assay: Phosphodiesterase (PDE) 10 assay with fluorescent substrate (IMAP, fluorescence polarization); format: biochemical; settings: labeled cAMP 30 nM
Chain of PDE10 (Q9Y233 whole entry): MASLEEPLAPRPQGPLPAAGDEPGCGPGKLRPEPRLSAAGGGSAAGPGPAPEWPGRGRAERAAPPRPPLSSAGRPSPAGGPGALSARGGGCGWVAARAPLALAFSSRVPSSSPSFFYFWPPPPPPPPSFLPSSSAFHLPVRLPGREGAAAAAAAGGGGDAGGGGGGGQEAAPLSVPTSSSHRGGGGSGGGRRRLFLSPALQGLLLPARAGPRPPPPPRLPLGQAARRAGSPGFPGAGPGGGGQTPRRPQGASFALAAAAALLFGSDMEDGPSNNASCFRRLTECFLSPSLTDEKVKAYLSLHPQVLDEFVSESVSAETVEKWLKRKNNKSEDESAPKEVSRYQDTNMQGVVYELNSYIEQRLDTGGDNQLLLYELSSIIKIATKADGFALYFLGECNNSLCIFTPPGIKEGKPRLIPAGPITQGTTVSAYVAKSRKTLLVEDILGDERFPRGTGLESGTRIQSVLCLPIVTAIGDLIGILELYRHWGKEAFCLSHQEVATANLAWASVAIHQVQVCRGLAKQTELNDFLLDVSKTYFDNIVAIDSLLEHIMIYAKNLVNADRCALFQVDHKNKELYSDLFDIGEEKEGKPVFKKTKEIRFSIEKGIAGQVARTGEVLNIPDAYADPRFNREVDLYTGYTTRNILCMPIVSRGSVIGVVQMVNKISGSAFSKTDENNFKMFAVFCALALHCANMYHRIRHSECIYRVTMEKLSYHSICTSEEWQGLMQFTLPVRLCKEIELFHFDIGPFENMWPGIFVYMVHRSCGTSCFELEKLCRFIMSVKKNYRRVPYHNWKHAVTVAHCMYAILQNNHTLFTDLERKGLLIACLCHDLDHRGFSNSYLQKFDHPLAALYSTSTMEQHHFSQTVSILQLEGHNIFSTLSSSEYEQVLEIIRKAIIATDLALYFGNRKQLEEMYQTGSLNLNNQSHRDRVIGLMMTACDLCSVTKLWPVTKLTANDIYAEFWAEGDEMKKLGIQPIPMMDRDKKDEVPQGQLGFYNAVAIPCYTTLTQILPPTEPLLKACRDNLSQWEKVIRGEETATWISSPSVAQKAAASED
Description: as §1

Chain of PDE 2A (O00408 whole entry, species assumed): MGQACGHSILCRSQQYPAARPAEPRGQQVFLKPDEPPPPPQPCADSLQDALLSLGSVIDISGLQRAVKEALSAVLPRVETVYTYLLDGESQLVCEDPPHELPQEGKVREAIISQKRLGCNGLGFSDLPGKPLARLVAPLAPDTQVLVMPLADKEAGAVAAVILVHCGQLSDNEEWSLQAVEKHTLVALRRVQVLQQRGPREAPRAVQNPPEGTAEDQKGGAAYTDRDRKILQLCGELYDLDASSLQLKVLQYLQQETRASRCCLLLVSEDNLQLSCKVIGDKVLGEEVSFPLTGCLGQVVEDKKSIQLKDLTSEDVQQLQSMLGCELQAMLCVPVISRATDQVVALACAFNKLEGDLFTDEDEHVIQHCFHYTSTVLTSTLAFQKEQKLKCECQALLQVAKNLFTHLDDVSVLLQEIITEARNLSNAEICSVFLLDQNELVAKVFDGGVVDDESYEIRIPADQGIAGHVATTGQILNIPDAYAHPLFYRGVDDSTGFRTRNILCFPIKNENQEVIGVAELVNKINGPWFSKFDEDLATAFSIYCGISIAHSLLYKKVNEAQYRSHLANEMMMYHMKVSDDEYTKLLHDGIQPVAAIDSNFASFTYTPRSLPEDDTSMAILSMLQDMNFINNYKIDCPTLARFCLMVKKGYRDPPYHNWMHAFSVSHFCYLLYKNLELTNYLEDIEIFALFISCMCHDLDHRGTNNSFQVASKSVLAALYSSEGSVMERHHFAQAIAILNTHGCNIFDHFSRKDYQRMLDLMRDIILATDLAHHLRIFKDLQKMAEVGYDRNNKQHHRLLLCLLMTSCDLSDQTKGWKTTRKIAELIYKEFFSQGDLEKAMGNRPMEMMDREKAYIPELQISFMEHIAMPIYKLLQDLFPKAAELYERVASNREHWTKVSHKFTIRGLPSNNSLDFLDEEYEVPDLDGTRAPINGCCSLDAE

SMILES | IC50 (PDE 2A) [µM] | IC50 (PDE10) [µM]
Cc1nn2cc(C3CC3)cnc2c1C(=O)NC1(c2ccc(C(F)(F)F)cn2)CCOCC1O (racemic) [Example 63] | 0.124 | > 10
O=C(NC1(c2ccc(C(F)(F)F)cc2)CCOCC1O)c1cnn2cc(C3CC3)cnc12 (stereo not shown) [Example 60] | 0.022 | > 10
